Source: patent US10508104B2, “6-hydroxy-5-(phenyl/heteroarylsulfonyl)pyrimidin-4(1H)-one as APJ agonists” (Bristol-Myers Squibb Company, priority 2016, dated 2019)

What follows are molecules tested against human APJ receptor (Homo sapiens (Human), UniProt P35414) (assay: Intracellular cAMP accumulation assay (APJ hcAMP, HTRF)). Conditions: HEK293 cells stably expressing human APJ receptor; inhibition of forskolin-mediated cAMP production; read-out: Human APJ cAMP EC50 Potency range.
Chain of human APJ receptor (P35414 whole entry): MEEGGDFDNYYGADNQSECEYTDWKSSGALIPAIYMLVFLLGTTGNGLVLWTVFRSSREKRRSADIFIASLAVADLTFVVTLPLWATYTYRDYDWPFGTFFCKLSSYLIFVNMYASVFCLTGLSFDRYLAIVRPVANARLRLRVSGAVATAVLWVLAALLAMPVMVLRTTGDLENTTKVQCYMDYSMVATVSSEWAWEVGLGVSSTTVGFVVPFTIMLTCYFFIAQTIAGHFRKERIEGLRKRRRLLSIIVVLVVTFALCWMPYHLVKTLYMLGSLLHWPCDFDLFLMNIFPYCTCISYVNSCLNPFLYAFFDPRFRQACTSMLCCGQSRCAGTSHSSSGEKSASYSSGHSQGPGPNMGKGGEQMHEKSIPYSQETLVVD
Assay type: cell-based
Experimental: Intracellular cAMP Accumulation Assay
HEK293 cells stably expressing human APJ receptor were used to assess the activity of compounds. Cultured cells were detached and resuspended in the cAMP Homogeneous Time-Resolved Fluorescence (HTRF) assay buffer (Cisbio cat; #62AM4PEJ). The assay was performed in 384-well assay plates (Perkin-Elmer; cat #6008289) according to assay protocol provided by the manufacturer. Serial dilutions of a compound together with assay buffer containing […] and 2 μM forskolin were added to each well containing 5,000 cells and incubated for 30 minutes at room temperature. Subsequently, cAMP D2 reagent was added in the lysis buffer followed by the EuK antibody (Cisbio; cat #62AM4PEJ) and incubated for 60 min. The fluorescence emission ratio was measured using fluorometer. The intracellular cAMP concentrations (compound-stimulated inhibition of forskolin-mediated cAMP production) were calculated by extrapolation from a standard curve using known cAMP concentrations. The EC50 values were obtained by fitting the data to a sigmoidal concentration-response curve with variable slope.
The EC50 value of each compound is presented at the end of the example description.
The biological activity of the exemplified compounds of this invention determined by the assay described above is shown at the end of each example.
Molecule `CCCCc1nc(=O)c(S(=O)(=O)c2ccc(-c3c[nH]nc3C)cc2)c(O)n1[C@@H](CC)c1cccc(C#N)c1` [Example 495, 3-[(1S)-1-{2-butyl-6-hydroxy-5-[4-(3-methyl-1H-pyrazol-4-yl)benzenesulfonyl]-4-oxo-1,4-dihydropyrimidin-1-yl}propyl]benzonitrile] has an EC50 of 0.01 to 10 nM. Work on `COC[C@@H](c1cccc(C#N)c1)n1c(COC(C)C)nc(=O)c(S(=O)(=O)c2ccc(-c3ccc(F)nc3C)cc2)c1O` [Example 389, 3-[(1R)-1-{5-[4-(6-fluoro-2-methylpyridin-3-yl)benzenesulfonyl]-6-hydroxy-4-oxo-2-[(propan-2-yloxy)methyl]-1,4-dihydropyrimidin-1-yl}-2-methoxyethyl]benzonitrile] yielded an EC50 of 0.01 to 10 nM. `CCCCc1nc(=O)c(S(=O)(=O)c2ccc(-c3cc(F)ncc3C)cc2)c(O)n1[C@@H](CC)c1cccc(C#N)c1` [Example 536, 3-[(1S)-1-{2-butyl-5-[4-(2-fluoro-5-methylpyridin-4-yl)benzenesulfonyl]-6-hydroxy-4-oxo-1,4-dihydropyrimidin-1-yl}propyl]benzonitriIe] was tested, and the EC50 was 0.01 to 10 nM. `CCCCc1nc(=O)c(S(=O)(=O)c2ccc(-c3cccc(C(C)(C)O)c3)cc2)c(O)n1[C@@H](CC)c1cccc(C#N)c1` [Example 531, 3-[(1S)-1-(2-buty1-6-hydroxy-5-{[3′-(2-hydroxypropan-2-yl)-[1,1′-biphenyl]-4-yl]sulfonyl}-4-oxo-1,4-dihydropyrimidin-1-yl)propyl]benzonitrile] was tested, and the EC50 was 10 to 100 nM. Molecule `CCCCc1nc(=O)c(S(=O)(=O)c2ccc(-c3cccc4c3CNC4=O)cc2)c(O)n1[C@@H](CC)c1cccc(C#N)c1` [Example 535, 3-[(1S)-1-{2-butyl-6-hydroxy-4-oxo-5-[4-(1-oxo-2,3-dihydro-1H-isoindol-4-yl)benzenesulfonyl]-1,4-dihydropyrimidin-1-yl}propyl]benzonitrile] has an EC50 of 0.01 to 10 nM. `CCCCc1nc(=O)c(S(=O)(=O)c2ccc(-c3cccnc3C)cc2)c(O)n1[C@@H](CC)c1cc(F)cc(C#N)c1` [Example 449, 3-[(1S)-1-{2-butyl-6-hydroxy-5-[4-(2-methylpyridin-3-yl)benzenesulfonyl]-4-oxo-1,4-dihydropyrimidin-1-yl}propyl]-5-fluorobenzonitrile] showed an EC50 of 0.01 to 10 nM. In the case of `CCCCc1nc(=O)c(S(=O)(=O)c2ccc(-c3ccc(F)cc3C(N)=O)cn2)c(O)n1[C@@H](CC)c1cccc(C#N)c1` [Example 464, 2-[6-({2-butyl-1-[(1S)-1-(3-cyanophenyl)propyl]-6-hydroxy-4-oxo-1,4-dihydropyrimidin-5-yl)sulfonyl)pyridin-3-yl]-5-fluorobenzamide], the EC50 is reported as 0.01 to 10 nM. Molecule `CCOCc1nc(=O)c(S(=O)(=O)c2ccc(-c3ccnc(F)c3C)c(F)c2)c(O)n1C(COC)c1cccc(F)c1` (centres unmarked) [Example 374, 2-(ethoxymethyl)-5-[3-fluoro-4-(2-fluoro-3-methylpyridin-4-yl)benzenesulfonyl]-1-[1-(3-fluorophenyl)-2-methoxyethyl]-6-hydroxy-1,4-dihydropyrimidin-4-one] has an EC50 of 0.01 to 10 nM. `CC(C)OCc1nc(=O)c(S(=O)(=O)c2ccc(-c3ccc(F)cc3C(N)=O)cc2)c(O)n1[C@H](c1cccc(C#N)c1)C1CC1` [Example 417, 4′-({1-[(S)-(3-cyanophenyl)(cyclopropyl)methyl]-6-hydroxy-4-oxo-2-[(propan-2-yloxy)methyl]-1,4-dihydropyrimidin-5-yl}sulfonyl)-4-fluoro-[1,1′-biphenyl]-2-carboxamide] was tested, and the EC50 was 0.01 to 10 nM.

Same assay, conditions: human APJ, cAMP accumulation; read-out: Human APJ cAMP EC50 Potency range
With `CCCCc1nc(=O)c(S(=O)(=O)c2ccc(Br)cc2)c(O)n1[C@@H](CC)c1ccccc1` [Example 284, 5-(4-bromobenzenesulfonyl)-2-butyl-6-hydroxy-1-[(1S)-1-phenylpropyl]-1,4-dihydropyrimidin-4-one] the EC50 was 0.01 to 10 nM. `Cc1nc(F)ccc1-c1ccc(S(=O)(=O)c2c(O)n([C@H]3CCc4ccccc43)c(COC(C)C)nc2=O)cc1` [Example 320, 1-[(1S)-2,3-dihydro-1H-inden-1-yl]-5-[4-(6-fluoro-2-methylpyridin-3-yl)benzenesulfonyl]-6-hydroxy-2-[(propan-2-yloxy)methyl]-1,4-dihydropyrimidin-4-one] showed an EC50 of 0.01 to 10 nM. `CCCCc1nc(=O)c(S(=O)(=O)c2ccc(-c3ccc(F)nc3C)cc2)c(O)n1[C@H]1CCCc2ccccc21` [Example 237, 2-butyl-5-[4-(6-fluoro-2-methylpyridin-3-yl)benzenesulfonyl]-6-hydroxy-1-[(1S)-1,2,3,4-tetrahydronaphthalen-1-yl]-1,4-dihydropyrimidin-4-one] was tested, and the EC50 was 0.01 to 10 nM. In the case of `Cc1cnccc1-c1ccc(S(=O)(=O)c2c(O)n([C@H]3CCc4ccccc43)c(COC(C)C)nc2=O)cc1` [Example 332, 1-[(1S)-2,3-dihydro-1H-inden-1-yl]-6-hydroxy-5-[4-(3-methylpyridin-4-yl)benzenesulfonyl]-2-[(propan-2-yloxy)methyl]-1,4-dihydropyrimidin-4-one], the EC50 is reported as 0.01 to 10 nM. `CCCCc1nc(=O)c(S(=O)(=O)c2ccc(-c3cncc(F)c3)cc2)c(O)n1[C@@H](CC)c1ccccc1` [Example 290, 2-butyl-5-[4-(5-fluoropyridin-3-yl)benzenesulfonyl]-6-hydroxy-1-[(1S)-1-phenylpropyl]-1,4-dihydropyrimidin-4-one] showed an EC50 of 0.01 to 10 nM. `COC[C@@H](c1ccccc1)n1c(C2CCCO2)nc(=O)c(S(=O)(=O)c2ccc(-c3ccnc(F)c3C)cc2)c1O` (mixture of isomers) [Example 353, 5-[4-(2-fluoro-3-methylpyridin-4-yl)benzenesulfonyl]-6-hydroxy-1-[(1R)-2-methoxy-1-phenylethyl]-2-(oxolan-2-yl)-1,4-dihydropyrimidin-4-one] gave an EC50 of 0.01 to 10 nM. In the case of `CCCCc1nc(=O)c(S(=O)(=O)c2ccc(-c3ccncc3C)cc2)c(O)n1[C@@H](C)c1ccccc1OC` [Example 228, 2-butyl-6-hydroxy-1-[(1S)-1-(2-methoxyphenyl)ethyl]-5-[4-(3-methylpyridin-4-yl)benzenesulfonyl]-1,4-dihydropyrimidin-4-one], the EC50 is reported as 0.01 to 10 nM. `CCCCCc1nc(=O)c(S(=O)(=O)c2ccc(-c3cccnc3C)cc2)c(O)n1[C@@H](COC)c1ccccc1` [Example 249, 6-hydroxy-1-[(1R)-2-methoxy-1-phenylethyl]-5-[4-(2-methylpyridin-3-yl)benzenesulfonyl]-2-pentyl-1,4-dihydropyrimidin-4-one] showed an EC50 of 0.01 to 10 nM.

Same assay, conditions: human APJ, intracellular cAMP accumulation; read-out: Human APJ cAMP EC50 Potency range
`CCCCc1nc(=O)c(S(=O)(=O)c2ccc(Cl)cc2)c(O)n1-c1c(OC)cccc1OC` [Example 3, 2-butyl-5-(4-chlorobenzenesulfonyl)-1-(2,6-dimethoxyphenyl)-6-hydroxy-1,4-dihydropyrimidin-4-one] showed an EC50 of 0.01 to 10 nM. `CCCCc1nc(=O)c(S(=O)(=O)c2ccc(-c3cccnc3C)cc2)c(O)n1[C@H]1CCc2ccccc21` [Example 157, 2-butyl-1-[(1S)-2,3-dihydro-1H-inden-1-yl]-6-hydroxy-5-[4-(2-methylpyridin-3-yl)benzenesulfonyl]-1,4-dihydropyrimidin-4-one] showed an EC50 of 0.01 to 10 nM. Work on `CCCCc1nc(=O)c(S(=O)(=O)c2ccc(-c3ccncc3F)cc2)c(O)n1-c1c(OC)cccc1OC` [Example 34, 2-butyl-1-(2,6-dimethoxyphenyl)-5-[4-(3-fluoropyridin-4-yl)benzenesulfonyl]-6-hydroxy-1,4-dihydropyrimidin-4-one] yielded an EC50 of 0.01 to 10 nM.
